Test results reported in the NIST ThermoML archive (doi:10.1021/acs.jced.6b00483).
Values joined by “and” are separate entries in the source; they are usually repeats but may differ in a detail not shown here. Equal entries are not always repeated.

Legend:
[1] = Molar enthalpy of transition or fusion; conditions: Crystal 3; DSC
[2] = molar heat capacity at constant pressure; conditions: 101.33 kPa, Crystal 3, DSC
[3] = DSC

NC(N)=C([N+](=O)[O-])[N+](=O)[O-] [1,1-diamino-2,2-dinitroethene]
Conditions	Molar enthalpy of transition or fusion
[1]	0.623 kcal/mol and 0.676 kcal/mol

Conditions	Triple point temperature [K]	molar heat capacity at constant pressure [J/K/mol]
[2], 345 K	–	191.17
[2], 350 K	–	193.24
[2], 355 K	–	195.17
[2], 360 K	–	197.24
[2], 365 K	–	199.16
[2], 370 K	–	201.24
[2], 375 K	–	203.16
[2], 380 K	–	205.09
[2], 385 K	–	207.16
[3], Crystal 2	439.2	–
[3], Crystal 3	393.7	–
